Experimental data from patent US9284321B2, “Piperazino[1,2-a]indol-1-ones and [1,4]diazepino[1,2-a]indol-1-one” (Hoffmann-La Roche Inc., priority 2012, dated 2016).

Tests used:
[1] = system: human embryonic stem cell derived neural stem cells (NSCs); test: Neural Stem Cell Proliferation Assay (neurogenesis assay, ATP levels by CellTiterGlo); format: cell-based; conditions: 96 h, compound concentration at which 150% activity of control (100%) is reached, NSC proliferation by ATP level after 4 days incubation, dose response 8 μM to 8 nM
Method in brief: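 Read-out is CellTiterGlo ATP luminescence after 4-day culture (37 °C, 5% CO2) of dual-SMAD-derived human ESC NSCs, dosed 4 h post-seeding at 8 μM to 8 nM (11 points, 2-fold). EC150 marks the concentration reaching 150% of the media-only control (0.25% DMSO).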

Row | SMILES | melting point | EC (150% of control) [1]
1 | Cc1c2n(c3c(-c4ccc(OC(F)(F)F)cc4)cc(Cl)cc13)CCNC2=O [Example 133, 8-Chloro-10-methyl-6-(4-trifluoromethoxy-phenyl)-3,4-dihydro-2H-pyrazino[1,2-a]indol-1-one] | 212 °C | 0.004 µM
2 | Cc1cc(-c2cc(Cl)cc3c(C)c4n(c23)CCNC4=O)ccc1F [Example 134, 8-Chloro-6-(4-fluoro-3-methyl-phenyl)-10-methyl-3,4-dihydro-2H-pyrazino[1,2-a]indol-1-one] | 235.5 °C | 0.083 µM
3 | Cc1c2n(c3c(-c4ccc(Cl)c(C(F)(F)F)c4)cc(Cl)cc13)CCNC2=O [Example 135, 8-Chloro-6-(4-chloro-3-trifluoromethyl-phenyl)-10-methyl-3,4-dihydro-2H-pyrazino[1,2-a]indol-1-one] | 268 °C | 0.036 µM
4 | Cc1c2n(c3c(-c4cc(F)c(F)c(F)c4)cc(Cl)cc13)CCNC2=O [Example 136, 8-Chloro-10-methyl-6-(3,4,5-trifluoro-phenyl)-3,4-dihydro-2H-pyrazino[1,2-a]indol-1-one] | 253 °C | 0.021 µM
5 | Cc1c2n(c3c(-c4cncnc4)cc(Cl)cc13)CCNC2=O [Example 138, 8-Chloro-10-methyl-6-pyrimidin-5-yl-3,4-dihydro-2H-pyrazino[1,2-a]indol-1-one] | 306 °C | 0.21 µM
6 | COc1ncc(-c2cc(Cl)cc3c(C)c4n(c23)CCNC4=O)cn1 [Example 142, 8-Chloro-6-(2-methoxy-pyrimidin-5-yl)-10-methyl-3,4-dihydro-2H-pyrazino[1,2-a]indol-1-one] | 270.5 °C | 0.039 µM
7 | Cc1c2n(c3c(-c4cnc(N)nc4)cc(Cl)cc13)CCNC2=O [Example 143, 6-(2-Amino-pyrimidin-5-yl)-8-chloro-10-methyl-3,4-dihydro-2H-pyrazino[1,2-a]indol-1-one] | 316 °C | 0.32 µM
8 | Cc1c2n(c3c(-c4ccc(N(C)C)cc4)cc(F)cc13)CCNC2=O [Example 145, 6-(4-Dimethylamino-phenyl)-8-fluoro-10-methyl-3,4-dihydro-2H-pyrazino[1,2-a]indol-1-one] | 256 °C | 0.017 µM
9 | Cc1ccc(-c2cc(F)cc3c(C)c4n(c23)CCNC4=O)cc1F [Example 147, 8-Fluoro-6-(3-fluoro-4-methyl-phenyl)-10-methyl-3,4-dihydro-2H-pyrazino[1,2-a]indol-1-one] | 206 °C | 0.039 µM
10 | Cc1c2n(c3c(-c4ccc(OC(F)(F)F)cc4)cc(F)cc13)CCNC2=O [Example 149, 8-Fluoro-10-methyl-6-(4-trifluoromethoxy-phenyl)-3,4-dihydro-2H-pyrazino[1,2-a]indol-1-one] | 162 °C | 0.016 µM
11 | Cc1c2n(c3c(-c4ccc(Cl)c(C(F)(F)F)c4)cc(F)cc13)CCNC2=O [Example 150, 6-(4-Chloro-3-trifluoromethyl-phenyl)-8-fluoro-10-methyl-3,4-dihydro-2H-pyrazino[1,2-a]indol-1-one] | 240 °C | 0.61 µM
12 | Cc1c2n(c3c(-c4ccc(F)c(F)c4F)cc(F)cc13)CCNC2=O [Example 151, 8-Fluoro-10-methyl-6-(2,3,4-trifluoro-phenyl)-3,4-dihydro-2H-pyrazino[1,2-a]indol-1-one] | 130 °C | 0.035 µM
13 | Cc1c2n(c3c(-c4ccc(F)c(F)c4F)cc(Cl)cc13)CCNC2=O [Example 153, 8-Chloro-10-methyl-6-(2,3,4-trifluoro-phenyl)-3,4-dihydro-2H-pyrazino[1,2-a]indol-1-one] | 205.5 °C | 0.029 µM
14 | Cc1c2n(c3c(-c4ccc(N(C)C)nc4)cc(Cl)cc13)CCNC2=O [Example 154, 8-Chloro-6-(6-dimethylamino-pyridin-3-yl)-10-methyl-3,4-dihydro-2H-pyrazino[1,2-a]indol-1-one] | 248 °C | 0.022 µM
15 | COc1ncc(-c2cc(F)cc3c(C)c4n(c23)CCNC4=O)cn1 [Example 156, 8-Fluoro-6-(2-methoxy-pyrimidin-5-yl)-10-methyl-3,4-dihydro-2H-pyrazino[1,2-a]indol-1-one] | 271 °C | 0.11 µM
16 | Cc1c2n(c3c(-c4cc(F)c(F)c(F)c4)cc(F)cc13)CCNC2=O [Example 159, 8-Fluoro-10-methyl-6-(3,4,5-trifluoro-phenyl)-3,4-dihydro-2H-pyrazino[1,2-a]indol-1-one] | 250 °C | 0.22 µM
17 | Cc1c2n(c3c(-c4ccc(N)nc4)cc(Cl)cc13)CCNC2=O [Example 161, 6-(6-Amino-pyridin-3-yl)-8-chloro-10-methyl-3,4-dihydro-2H-pyrazino[1,2-a]indol-1-one] | 250 °C | 0.27 µM
18 | Cc1c2n(c3c(-c4ccc(F)cc4)cc(C#N)cc13)CCNC2=O [Example 162, 6-(4-Fluoro-phenyl)-10-methyl-1-oxo-1,2,3,4-tetrahydro-pyrazino[1,2-a]indole-8-carbonitrile] | 292 °C | 0.021 µM
19 | Cc1c2n(c3c(-c4ccc(Cl)cc4)cc(C#N)cc13)CCNC2=O [Example 163, 6-(4-Chloro-phenyl)-10-methyl-1-oxo-1,2,3,4-tetrahydro-pyrazino[1,2-a]indole-8-carbonitrile] | 298 °C | 0.013 µM
20 | Cc1c2n(c3c(-c4ccc(F)c(F)c4)cc(C#N)cc13)CCNC2=O [Example 164, 6-(3,4-Difluoro-phenyl)-10-methyl-1-oxo-1,2,3,4-tetrahydro-pyrazino[1,2-a]indole-8-carbonitrile] | 243 °C | 0.045 µM
21 | Cc1c2n(c3c(-c4ccc(C(F)(F)F)cc4)cc(C#N)cc13)CCNC2=O [Example 165, 10-Methyl-1-oxo-6-(4-trifluoromethyl-phenyl)-1,2,3,4-tetrahydro-pyrazino[1,2-a]indole-8-carbonitrile] | 282 °C | 0.018 µM
22 | Cc1c2n(c3c(-c4ccc(C#N)cc4)cc(C#N)cc13)CCNC2=O [Example 166, 6-(4-Cyano-phenyl)-10-methyl-1-oxo-1,2,3,4-tetrahydro-pyrazino[1,2-a]indole-8-carbonitrile] | 323 °C | 0.028 µM
23 | Cc1c2n(c3c(-c4ccc(Cl)cc4Cl)cc(C#N)cc13)CCNC2=O [Example 167, 6-(2,4-Dichloro-phenyl)-10-methyl-1-oxo-1,2,3,4-tetrahydro-pyrazino[1,2-a]indole-8-carbonitrile] | 274 °C | 0.002 µM

Now from value to compound, other results behind:

Row | melting point | SMILES | EC (150% of control) [1]
24 | 252.5 °C | Cc1c2n(c3c(-c4cccnc4)cc(Cl)cc13)CCNC2=O [Example 137, 8-Chloro-10-methyl-6-pyridin-3-yl-3,4-dihydro-2H-pyrazino[1,2-a]indol-1-one] | 0.088 µM
25 | 240 °C | Cc1c2n(c3c(-c4ccnc(F)c4)cc(F)cc13)CCNC2=O [Example 139, 8-Fluoro-6-(2-fluoro-pyridin-4-yl)-10-methyl-3,4-dihydro-2H-pyrazino[1,2-a]indol-1-one] | 0.027 µM
26 | 254 °C | Cc1c2n(c3c(-c4ccnc(Cl)c4)cc(F)cc13)CCNC2=O [Example 140, 6-(2-Chloro-pyridin-4-yl)-8-fluoro-10-methyl-3,4-dihydro-2H-pyrazino[1,2-a]indol-1-one] | 0.12 µM
27 | 247 °C | Cc1c2n(c3c(-c4ccc(F)nc4)cc(F)cc13)CCNC2=O [Example 141, 8-Fluoro-6-(6-fluoro-pyridin-3-yl)-10-methyl-3,4-dihydro-2H-pyrazino[1,2-a]indol-1-one] | 0.13 µM
28 | 226 °C | COc1ccc(-c2cc(F)cc3c(C)c4n(c23)CCNC4=O)cn1 [Example 146, 8-Fluoro-6-(6-methoxy-pyridin-3-yl)-10-methyl-3,4-dihydro-2H-pyrazino[1,2-a]indol-1-one] | 0.02 µM
29 | 236 °C | Cc1cc(-c2cc(F)cc3c(C)c4n(c23)CCNC4=O)ccc1F [Example 148, 8-Fluoro-6-(4-fluoro-3-methyl-phenyl)-10-methyl-3,4-dihydro-2H-pyrazino[1,2-a]indol-1-one] | 0.078 µM
30 | 239 °C | Cc1c2n(c3c(-c4cccnc4)cc(F)cc13)CCNC2=O [Example 152, 8-Fluoro-10-methyl-6-pyridin-3-yl-3,4-dihydro-2H-pyrazino[1,2-a]indol-1-one] | 0.13 µM
31 | 289 °C | Cc1c2n(c3c(-c4cncnc4)cc(F)cc13)CCNC2=O [Example 155, 8-Fluoro-10-methyl-6-pyrimidin-5-yl-3,4-dihydro-2H-pyrazino[1,2-a]indol-1-one] | 0.57 µM
32 | 310 °C | Cc1c2n(c3c(-c4cnc(N)nc4)cc(F)cc13)CCNC2=O [Example 157, 6-(2-Amino-pyrimidin-5-yl)-8-fluoro-10-methyl-3,4-dihydro-2H-pyrazino[1,2-a]indol-1-one] | 0.19 µM
33 | 259 °C | Cc1c2n(c3c(-c4ccc(N(C)C)nc4)cc(F)cc13)CCNC2=O [Example 158, 6-(6-Dimethylamino-pyridin-3-yl)-8-fluoro-10-methyl-3,4-dihydro-2H-pyrazino[1,2-a]indol-1-one] | 0.012 µM
34 | 254 °C | Cc1c2n(c3c(-c4ccc(N)nc4)cc(F)cc13)CCNC2=O [Example 160, 6-(6-Amino-pyridin-3-yl)-8-fluoro-10-methyl-3,4-dihydro-2H-pyrazino[1,2-a]indol-1-one] | 0.18 µM
